The source of these data is patent US20150252022A1, “RETINOIC ACID RECEPTOR-RELATED ORPHAN RECEPTOR MODULATORS AND USES THEREOF” (INNOV17 LLC, priority 2014, published 2015).

Holding throughout (type): cell-based
Common to all, as to details: 72 h; human CD4+ T cells under TH17-polarizing conditions, 3 days, supernatant ELISA

One assay concerns IL-17F. The experiment in a line: Human TH17 Cytokine Inhibition as measured by ELISA (IL-17F). Here is the method: (§1) Peripheral blood mononuclear cells (PBMCs) were sourced from freshly prepared leukocyte enriched plasma (buffy coat) from healthy donors (New York Blood Center). PBMCs were isolated by density gradient centrifugation using Ficoll-Paque™ PLUS (GE Healthcare). Human CD4+ T cells were seeded into 96-well plates (5×10^4 cells/well) and activated with plate-bound anti-human (h)-CD3 antibody and soluble h-aCD28 (both at 1 ug/ml; eBioscience) and differentiated into TH17 cells with 20 ng/mL h-IL-6, 5 ng/mL h-TGF-β1, 10 ng/mL h-IL-23 (eBioscience) and 10 ng/mL IL-1β (Miltenyi Biotec) in serum-free TexMACS Medium (Miltenyi Biotec) supplemented with 1% Penicillin/Streptomycin (Lonza) for 3 days. CD4+ T cells propagated under TH17-polarizing conditions were cultured in the presence or absence of various concentrations of compounds with a final concentration of 0.1% DMSO. Supernatants were collected and stored at −20° C. until assayed for IL-17A, IL-17F and IL-21 levels by “Ready-Set-Go” ELISA kits (eBioscience) as per manufacturer's instructions. Endpoint absorbance was read at 450 nm using a microplate reader (Perkin Elmer).

Another assay relates to IL-21. The experiment in a line: Human TH17 Cytokine Inhibition as measured by ELISA (IL-21). The protocol: as §1
Another assay deals with IL-17A. The experiment in a line: Human TH17 Cytokine Inhibition as measured by ELISA (IL-17A). Here is the method: as §1

As to `O=C(CCc1ccccc1)N1CCCC(CN2CCc3cc(-c4cn[nH]c4)ccc32)CC1` (stereo not drawn) [Example 56, 1-(4-((5-(1H-pyrazol-4-yl)indolin-1-yl)methyl)azepan-1-yl)-3-phenylpropan-1-one], the 50% inhibitory concentration (IC50) with IL-17F, with IL-21 and in the assay on IL-17A was < 10 µM throughout.
With `O=C(CC1CCCCC1)N1CCCC(CN2CCc3cc(-c4cn[nH]c4)ccc32)CC1` (stereo not drawn) [Example 57, 1-(4-((5-(1H-pyrazol-4-yl)indolin-1-yl)methyl)azepan-1-yl)-2-cyclohexylethanone], the IC50 in the assay on IL-17F, in the assay with IL-21 and in the assay with IL-17A was < 10 µM throughout.
Take `O=C(C1CCCCC1)N1CCCC(Cn2ccc3cc(-c4cn[nH]c4)ccc32)CC1` (stereo not drawn) [Example 58, (4-((5-(1H-pyrazol-4-yl)-1H-indol-1-yl)methyl)azepan-1-yl)(cyclohexyl)methanone]: the 50% inhibitory concentration (IC50) in the assay on IL-17F, in the assay with IL-21 and in the assay on IL-17A was < 10 µM throughout.
In the case of `CC(C)CC(=O)N1CCCC(Cn2ccc3cc(-c4cn[nH]c4)ccc32)CC1` (stereo not drawn) [Example 59, 1-(4-((5-(1H-pyrazol-4-yl)-1H-indol-1-yl)methyl)azepan-1-yl)-3-methylbutan-1-one], the IC50 was < 10 µM in the assay on IL-17F, > 10 µM in the assay on IL-21 and < 10 µM in the assay with IL-17A.
Consider `CC(C)C(=O)N1CCCC(Cn2ccc3cc(-c4cn[nH]c4)ccc32)CC1` (stereo not drawn) [Example 60, 1-(4-((5-(1H-pyrazol-4-yl)-1H-indol-1-yl)methyl)azepan-1-yl)-2-methylpropan-1-one], for which the half-maximal inhibitory concentration (IC50) was < 10 µM with IL-17F, > 10 µM in the assay on IL-21 and < 10 µM with IL-17A.
For the compound `O=C(OCc1ccccc1)N1CCC(CN2CCc3cc(-c4cn[nH]c4)ccc32)C1` (stereo not drawn) [Example 62, benzyl 3-((5-(1H-pyrazol-4-yl)indolin-1-yl)methyl)pyrrolidine-1-carboxylate], the figures for the IC50 in the assay on IL-17F, in the assay with IL-21 and in the assay with IL-17A were < 10 µM, > 10 µM and < 10 µM, respectively.
Regarding `O=C(NCc1ccccc1)N1CCC(CN2CCc3cc(-c4cn[nH]c4)ccc32)C1` (stereo not drawn) [Example 65, 3-((5-(1H-pyrazol-4-yl)indolin-1-yl)methyl)-N-benzylpyrrolidine-1-carboxamide], the IC50 in the assay on IL-17F, with IL-21 and with IL-17A was < 10 µM each time.
As to `CC(C)CNC(=O)N1CCC(CN2CCc3cc(-c4cn[nH]c4)ccc32)C1` (stereo not drawn) [Example 67, 3-((5-(1H-pyrazol-4-yl)indolin-1-yl)methyl)-N-isobutylpyrrolidine-1-carboxamide], the IC50 in the assay with IL-17F, in the assay on IL-21 and in the assay on IL-17A was < 10 µM each time.
For `CC(C)COC(=O)N1CCC(CN2CCc3cc(-c4cn[nH]c4)ccc32)C1` (stereo not drawn) [Example 69, isobutyl 3-((5-(1H-pyrazol-4-yl)indolin-1-yl)methyl)pyrrolidine-1-carboxylate], the concentration for half-maximal inhibition (IC50) with IL-17F, in the assay on IL-21 and with IL-17A was < 10 µM in each case.
In the case of `O=C(OCc1ccccc1)N1CCC(CN2CCc3cc(-c4cn[nH]c4)ccc32)CC1` [Example 70, benzyl 4-((5-(1H-pyrazol-4-yl)indolin-1-yl)methyl)piperidine-1-carboxylate], the 50% inhibitory concentration (IC50) in the assay on IL-17F, with IL-21 and in the assay with IL-17A was < 10 µM each time.
`CC(O)CC(=O)N1CCC(CN2CCc3cc(-c4cn[nH]c4)ccc32)CC1` (stereo not drawn) [Example 72, 1-(4-((5-(1H-pyrazol-4-yl)indolin-1-yl)methyl)piperidin-1-yl)-3-hydroxybutan-1-one]: the IC50 in the assay on IL-17F, with IL-21 and in the assay on IL-17A was > 10 µM each time.
In the case of `CC(C)CNC(=O)N1CCC(CN2CCc3cc(-c4cn[nH]c4)ccc32)CC1` [Example 74C, 4-((5-(1H-pyrazol-4-yl)indolin-1-yl)methyl)-N-isobutylpiperidine-1-carboxamide], the figures for the IC50 in the assay on IL-17F, in the assay on IL-21 and with IL-17A were > 10 µM, > 10 µM and < 10 µM, respectively.
